Structures are written as SMILES.

The data set can be described thus: gradient 5% acetonitrile 3 min, to 50% in 2 min, to 85% in 15 min, held 3 min, 100 µL/min. The conditions noted are these: column: Zorbax Extend-C18 2.1 x 50 mm; eluents: water / acetonitrile, 0.1% formic acid. The gist of the method:
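Values are retention times taken from adduct peaks that software picked and an analyst inspected. The pure standards were run as mixtures of ~100 molecules on HPLC linked to a quadrupole time-of-flight mass spectrometer, in positive and negative ionization mode. A Zorbax Extend-C18 column (2.1 × 50 mm, 1.8 μm) was used at 100 μL/min with water and acetonitrile, each including 0.1% formic acid.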
In turn, `CC(=O)N1CCc2[nH]c3ccc(C(=O)NC4CCN(Cc5ccccc5)CC4)cc3c2C1` displayed an RP-LC retention time of 585 s. The same measure for `CCN1CCN(C(=O)C2CCN(S(=O)(=O)c3ccc4c(c3)NC(=O)CO4)CC2)CC1`: 664 s; for `O=C(NCc1ccccc1)c1ccc(-c2cncnc2)nc1`: 675 s. `COc1ccc(-c2noc(C3CC(=O)N(c4ccc(F)cc4)C3)n2)cc1` (centres undefined): the RP-LC retention time stood at 912 s. The figure for `CC1CCCCN1S(=O)(=O)c1ccc(C(=O)Nc2nc3c(s2)Cc2ccccc2-3)cc1` (centres undefined) is 1190 s; for `COc1ccc(Cl)cc1NC(=O)CSc1ccc(-c2ccco2)nn1` it is 944 s; for `Cc1oc(-c2[nH]ncc2C(=O)N2CCOCC2)cc1S(=O)(=O)Nc1ccc(F)cc1` it is 669 s. The figure for `Cc1cc(N2CCOCC2)n2nc(CN3CCN(c4cc(Cl)ccc4C)CC3)nc2n1` is 668 s; for `O=C(CSc1ccc(N2CCCC(C(=O)NC3CC3)C2)nn1)Nc1ccc2c(c1)OCO2` (centres undefined) it is 612 s; for `Cc1cccc(NC(=O)N2CCCC2c2nc(-c3ccccc3)no2)c1` (centres undefined) it is 984 s. `COC(=O)c1ccc(NC(=O)c2c(OC)cc(=O)n3c2CCCC3)cc1` returned an RP-LC retention time of 678 s. The same measure for `COc1ccccc1CNC(=O)CN1C(=O)CSc2cccn2-c2ccccc21`: 613 s. The figure for `CCOC(=O)c1cccc(Nc2c(-c3cccc(O)c3)nc3cnccn23)c1` is 748 s; for `Cc1ccc(-c2csc(NC(=O)c3sc(C)nc3C)n2)cc1` it is 974 s; for `COC(=O)c1cnc2nc(C)ccc2c1Nc1ccc(Cl)c(F)c1` it is 713 s. As for `CC1CCCCN1S(=O)(=O)c1ccc2nc(N3CCN(c4ccc(F)cc4)CC3)ccc2c1` (centres undefined), the RP-LC retention time stood at 1100 s. The figure for `CC(C)CN1C(=O)c2cccn2CC1CNC(=O)CC1CCCC1` (centres undefined) is 784 s; for `O=C(COc1ccc(-c2nnc3n2CCCC3)cc1)NCc1ccc2c(c1)OCO2` it is 662 s. The figure for `Cc1ccccc1-c1nnc(CSc2nnc(NC(=O)Cc3ccc(F)cc3)s2)o1` is 923 s. The same measure for `Cc1nnc(N2CCCC(C(=O)NCc3cccs3)C2)c2nn(-c3ccc(Cl)cc3)c(C)c12` (centres undefined): 742 s; for `Cc1noc(-c2cccnc2N2CCCN(Cc3ccc(F)cc3)CC2)n1`: 634 s; for `CC(CNC(=O)C1CCN(C(=O)c2ncn3c2COC(c2ccccc2)C3)CC1)c1ccccc1` (centres undefined): 826 s. For `O=C1NC2(CCN(C(=O)c3ccc4c(c3)OCO4)CC2)Nc2cc(Cl)ccc21`, the RP-LC retention time was 708 s. The figure for `COc1cccc(NC(=O)Cn2c(N3CCOCC3)nc(C)cc2=O)c1` is 652 s; for `COCCN1C(=O)Cc2ccccc2C1C(=O)N1CCN(c2ccccn2)CC1` (centres undefined) it is 581 s.

`O=C(c1nnc(-c2ccc(S(=O)(=O)N3CCOCC3)cc2)o1)N1CCOCC1` came in with an RP-LC retention time of 689 s. The figure for `COc1cc(OC)cc(-c2noc(-c3nnn(Cc4nc(-c5ccccc5OC)oc4C)c3C)n2)c1` is 1130 s; for `O=C(Cn1cnc2nc(N3CCCC(C(=O)NC4CC4)C3)sc2c1=O)Nc1ccc(F)cc1` (centres undefined) it is 672 s; for `Cc1ccc2c(c1)N(Cc1ccc(Cl)cc1)N=C(C(=O)N1CCOCC1)S2(=O)=O` it is 896 s. The figure for `O=C(NCc1ccccn1)C1CCN(c2cc(N3CCCCC3)ncn2)CC1` is 558 s; for `CCN(CC)C(=O)c1ccc2c(c1)N(C(=O)NC)CC2` it is 648 s. The same measure for `Cc1ncsc1C1N(C2CCN(C(=O)c3cnccn3)CC2)C(=O)C12CCCC2` (centres undefined): 654 s; for `COc1cncc(C(=O)Nc2cc(F)ccc2F)c1`: 735 s; for `O=C(CC1=C2CCCCC2NC1=O)NCCc1c[nH]c2ccccc12` (centres undefined): 673 s. The molecule `COc1ccc(-n2c(=O)c(C(=O)Nc3cc(F)cc(F)c3)c(O)c3cccnc32)cc1` had an RP-LC retention time of 1300 s. The same measure for `CC1CCN(c2cc(-n3cnc(C(=O)N4CCC5(CC4)OCCO5)c3)ncn2)CC1`: 834 s; for `O=C(CC1CCN(C(=O)c2ccc3oc(C4CC4)nc3c2)CC1)NC1CCCC1`: 715 s. The figure for `Cc1cc(C)c(-c2noc(C)n2)c(NC(=O)C2CCCCC2)n1` is 723 s; for `CCc1ccc(C(C)NC(=O)c2cccc(C3CCCN(C(=O)NC)C3)c2)cc1` (centres undefined) it is 888 s; for `CC1(C)CC(=O)CC(C)(C)N1O` it is 666 s. The figure for `CN(CCc1noc(-c2ccccc2Cl)n1)C(=O)COc1ccccc1` is 900 s. `O=C(NC1CCCN(c2cc(-c3ccc(Cl)cc3)[nH]n2)C1)c1ccc2[nH]ccc2c1` (centres undefined) displayed an RP-LC retention time of 825 s. The same measure for `COc1ccc(N2CCN(c3nc(C(=O)N4CCN(C)CC4)cs3)CC2)cc1`: 614 s; for `CCN1C(=O)SC(CC(=O)O)C1=O` (centres undefined): 948 s. The figure for `CC(C)CCNC(=O)C1CCN(C(=O)c2cc(-c3ccncc3)n[nH]2)CC1` is 591 s; for `CN(C)C(=O)c1n[nH]c2c1CN(C(=O)CCC(=O)c1ccc(F)cc1)CC2` it is 653 s; for `Cc1cc(-c2nnc(-c3ccc(F)cc3)o2)c(C)n1CC(=O)NCc1cccc(F)c1` it is 940 s. The figure for `O=C(c1ccc(Cl)cc1)N1CCN(C(=O)c2nnn3c2COC(c2ccccc2)C3)CC1` (centres undefined) is 888 s; for `CCCNC(=O)N(C1CCOCC1)C1CCN(C(=O)Nc2cccc(C)c2C)CC1` it is 732 s. For the molecule `CCc1cccc(Nc2c(C(=O)N3CCOCC3)cnc3nc(C)ccc23)c1`, the RP-LC retention time worked out at 617 s. The figure for `Cc1sc(-c2cc(C(F)(F)F)[nH]n2)cc1S(=O)(=O)N1CCN(c2ccccn2)CC1` is 752 s; for `COc1ccccc1-c1nnc(-c2ccc(C)c(S(=O)(=O)N(C)C)c2)o1` it is 895 s; for `CCCn1c(=O)sc2cc(S(=O)(=O)N3CCC(C(=O)Nc4cccc(C)n4)CC3)ccc21` it is 844 s. The figure for `CC1(C)CC(=O)c2c(nc(N3CCN(c4ccccn4)CC3)nc2Nc2ccccc2)C1` is 841 s. The figure for `NC(=O)C1CCN(C2=NC(=O)/C(=C\c3ccc(-c4ccc(F)cc4)o3)S2)CC1` is 671 s; for `CCCN(CCC)C(=O)Cn1nc(-c2nc(-c3ccc(C)cc3)no2)c2ccccc21` it is 859 s; for `COc1ccc(OC)c(S(=O)(=O)N2CCc3c(c(-c4nnc(-c5ccccc5)o4)nn3C)C2)c1` it is 912 s. Molecule `CCCN1CCN(CCCNC(=O)CN2C(=O)CCn3nc(-c4cn(C)c5ccccc45)cc32)CC1` had an RP-LC retention time of 589 s. The same measure for `C[C@@H]1CC2C3CCC4=CC(=O)C=CC4(C)[C@@]3(F)[C@@H](O)CC2(C)[C@@]1(O)C(=O)CO` (some centres undefined): 737 s; for `CN(C)c1nc2ncn3c(=O)n(CC(=O)NC4CCCCC4)nc3c2s1`: 663 s.

As for `CCn1nc(C(=O)Nc2cccc3c2C(=O)N(C)C3=O)cc1C`, the RP-LC retention time came out at 856 s.

In the case of `CCOc1ccc(-c2noc(CN3C(=O)COc4ccc(Cl)cc43)n2)cc1OC`, the RP-LC retention time was found to be 1050 s. The same measure for `Cc1cccc(Sc2nccnc2N2CCCC(C(=O)NC(C)c3ccccc3)C2)c1` (centres undefined): 1150 s. The figure for `COC(=O)c1c(NCc2ccccc2Br)c2cc(F)ccc2[nH]c1=O` is 787 s; for `O=C(c1ccc2ccccc2n1)N1CCC(Oc2ccccc2)C1` (centres undefined) it is 937 s. The figure for `CCc1ccc(CN2C(=O)c3ccccc3C2C(=O)NCCCOC)cc1` (centres undefined) is 819 s. The molecule `COc1cccc(-c2nc(C3CCN(S(=O)(=O)c4ccccc4F)CC3)no2)c1` returned an RP-LC retention time of 1110 s. The figure for `COc1ccc(-c2nnc(COc3ccc(NC(=O)c4cccnc4Cl)cc3)o2)cc1` is 820 s; for `CSc1nnc(-c2nn(C)c3c2CN(C(=O)c2ccccc2F)CC3)n1C` it is 697 s; for `CCc1nc(-c2cc(S(=O)(=O)N3CCC(C(=O)NC4CCCCCCC4)CC3)c(C)s2)no1` it is 1130 s. For the molecule `O=C(O)c1cc(-c2ccc(Cl)s2)nc2ccccc12`, the RP-LC retention time stood at 1070 s.

For `O=C(c1cc(-c2ccco2)on1)N1CCn2c1nc1ccccc12`, the RP-LC retention time came to 621 s. The same measure for `Cc1[nH]c(C(=O)N2CCN(c3ccccc3F)CC2)c(C)c1S(=O)(=O)N1CCC(C)CC1`: 1040 s; for `CCOc1ccc(CNC(=O)C2CCN(C(=O)C3Sc4ccccc4NC3=O)CC2)cc1OC` (centres undefined): 712 s; for `O=C1CN(C(=O)CSc2ccccc2)c2ccccc2N1`: 694 s. The figure for `CC(C)c1ccc2c(c1)-c1ccccc1S(=O)(=O)N2CC(=O)NCCN1CCOCC1` is 692 s; for `COc1cccc(S(=O)(=O)N2CCOCC2)c1` it is 708 s; for `COc1ccccc1NC(=O)Nc1cccc(-c2ccc(N3CCOCC3)nn2)c1` it is 702 s. The figure for `Cc1cc(-n2nc(C)cc2C)n2nc(-c3ccc(Cl)cc3)c(C)c2n1` is 1170 s.

The values are drawn from the METLIN SMRT retention time set (Domingo-Almenara et al. 2019).
